Results on 26 substances are retold here after patent US20040023884A1, “Biologically active peptides from functional domains of bactericidal/permeability-increasing protein and uses thereof” (priority 1993, published 2004).

Like-named read-outs stand apart in the source and are kept apart here. Square brackets hold non-standard residues; d marks the D form. Ends that are not written are not given here. 1Nal = N[C@@H](Cc1cccc2ccccc12)C(=O)O

Test [1] has as its system rough mutant E. coli J5 bacteria. In words: Radial diffusion bactericidal assay, E. coli J5. Format: cell-based. The conditions noted are these: radial diffusion; for bactericidal activity (in words): E. coli J5; for pmol added to well to achieve a 30 mm^2 bactericidal zone, E. coli J5: PROBIT analysis, E. coli J5 (rough). The protocol:
BPI proteolytic fragments produced according to Example 1 were screened for bactericidal effects using rough mutant E. coli J5 bacteria in a radial diffusion assay. Specifically, an overnight culture of E. coli J5 was diluted 1:50 into fresh tryptic soy broth and incubated for 3 hours at 37° C. to attain log phase growth of the culture. Bacteria were then pelleted at 3,000 rpm for 5 minutes in a Sorvall RT6000B centrifuge (Sorvall Instruments, Newton, Conn.). 5 mL of 10 mM sodium phosphate buffer (pH 7.4) was added and the preparation was re-pelleted. […] The bacteria were diluted to 4×10^6 CFU/mL in 10 mL of molten underlayer agarose (at approximately 45° C.) and inverted repeatedly to mix in 15 mL polypropylene tubes conventionally used for this purpose.
The entire contents of such tubes were then poured into a level square petri dish and distributed evenly by rocking the dish side-to-side. […] A series of wells were then punched into the hardened agarose using a sterile 3 mm punch attached to a vacuum apparatus. The punch was sterilized with 100% alcohol and allowed to air dry prior to use to avoid contaminating the bacterial culture.
5 or 10 μL of each of the BPI fragments were carefully pipetted into each well. As a negative control, dilution buffer (pH 8.3) was added to a separate well, and rBPI23 at concentrations of 5 μg/mL and 1 μg/mL were also added as positive controls. Each plate was incubated at 37° C. for 3 hours, and then 10 mL of molten overlayer agarose (at approximately 45° C.) was added into the level petri dish, allowed to harden and incubated overnight at 37° C. […] The bacterial zones were measured with a micrometer.

Test [2] in a line: 3H-heparin binding assay (affinity and capacity). The conditions noted are these: for cpm ^3H-Heparin bound: 100 picomoles of each fragment per well, saturating 3H-heparin 20 μg/mL, mean of duplicate wells ± range; for Heparin Capacity: heparin bound at saturation; for heparin binding capacity: direct heparin binding assay. The protocol: Briefly, each fragment was added to wells of a 96-well microtiter plate having a polyvinylidene difluoride membrane (Immunobilon-P, Millipore, Bedford, Mass.) disposed at the bottom of the wells. […] Positive control wells contained varying amounts of rBPI23. […] DuPont-NEN, Wilmington, Del.) were made in the blocking buffer and incubated in the BPI peptide-containing wells for one hour at 4° C. The unbound heparin was aspirated and the wells were washed three times with blocking buffer, dried and removed for quantitation in a liquid scintillation counter (Model 1217, LKB, Gaithersburg, Md.). Although BSA in the blocking buffer did show a low affinity and capacity to bind heparin, this was considered physiologically irrelevant and the background was routinely subtracted from the test compound signal.

Test [3] deals with E. coli 0111:B4 (smooth) bacteria. In words: Radial diffusion bactericidal assay, E. coli 0111:B4. The conditions noted are these: radial diffusion; PROBIT analysis; E. coli O111:B4 (smooth). Format: cell-based.
Test [4] concerns Staphylococcus aureus. In words: Radial diffusion bactericidal assay, Staphylococcus aureus. The class given is cell-based. The conditions noted are these: radial diffusion; PROBIT analysis; S. aureus.
[5] abbreviates: read-out: Kd of heparin binding.

Turning to “85-99: 15-mer pin-synthesized peptide corresponding to amino acids 85-99 of BPI, with cyclo(lysylprolyl) moiety on the carboxyl-terminus (IKISGKWKAQKRFLK-{cyclo(lysylprolyl)}; UniProt P17213 116-130, looked up, fragment)”, the “bactericidal activity (in words)” value in test [1] is listed as “found to have bactericidal activity”.
For the substance “A2: Asp-N fragment of rBPI23, residues 15-38 (DYASQQGTAALQKELKRIKIPDYS; Asp-N fragment; UniProt P17213 46-69, looked up, fragment)”, the “cpm ^3H-Heparin bound” value in test [2] is reported as 3,042 ± 162 cpm.
On to “A3: Asp-N fragment of rBPI23, residues 39-56 (DSFKIKHLGKGHYSFYSM; UniProt P17213 70-87, looked up, fragment)”, for which, in test [2], the “cpm ^3H-Heparin bound” value is recorded as 8,664 ± 128 cpm.
With “Aβ-(1-naphthyl)Aβ-(1-naphthyl)RFLKF ([1Nal][1Nal]RFLKF) [BPI.140]”, the “pmol added to well to achieve a 30 mm^2 bactericidal zone, E. coli J5” value (shortened to “pmol added to well … E. coli J5”) in test [1] is 84.76 pmol. Moreover, in test [3], the “pmol added to well to achieve a 30 mm^2 bactericidal zone, E. coli O111:B4” value (shortened to “pmol added to well … E. coli O111:B4”) was 605.34 pmol. Also, the “pmol added to well to achieve a 30 mm^2 bactericidal zone, S. aureus” value (“pmol added to well … S. aureus” below) in test [4] is given as 9,977.71 pmol.
Regarding “BPI.65(Ox) (CIKISGKWKAQKRFLKC; not fully specified (bridges); also: oxidized)”, the “pmol added to well … E. coli J5” value in test [1] was found to be 849.79 pmol. Also, the “pmol added to well … E. coli O111:B4” value in test [3] was “b (no detectable activity up to 5 μg/well)”. The “pmol added to well … S. aureus” value in test [4] is reported as 11,960.00 pmol.
As to “C2: CNBr fragment of rBPI23, residues 57-70 (DIREFQLPSSQISM; CNBr fragment; UniProt P17213 88-101, looked up, fragment)”, the “cpm ^3H-Heparin bound” value in test [2] is reported as 6,262 ± 182 cpm.
Take “C3: CNBr fragment of rBPI23, residues 71-100 (VPNVGLKFSISNANIKISGKWKAQKRFLKM; CNBr fragment; UniProt P17213 102-131, looked up, fragment)”: in test [2], the “cpm ^3H-Heparin bound” value was 81,655 ± 3,163 cpm.
Still for that read-out and setting: next, “C4: CNBr fragment of rBPI23, residues 101-111 (SGNFDLSIEGM; CNBr fragment; UniProt P17213 132-142, looked up, fragment)”: 4,686 ± 4 cpm; “C6: CNBr fragment of rBPI23, residues 171-196 (NSQVCEKVTNSVSSELQPYFQTLPVM; CNBr fragment; UniProt P17213 202-227, looked up, fragment)”: 26,204 ± 844 cpm.
Take CIKISGKWKAQKRFLKC [BPI.65 (ox.)]: in test [2], the “Heparin Capacity” value stood at 190.6 ng. In test [2] (read-out: Heparin Affinity), the Kd is 160 nM.
As for CIKISGKWKAQKRFLKC [BPI.65 (red.)], the “bactericidal activity (in words)” value in test [1] was “highly bactericidal”. Besides, in test [2], the “heparin binding capacity (in words)” value is “extremely high heparin capacity” and the “Heparin Capacity” value was 279.6 ng. In addition, the Kd in test [2] (read-out: Heparin Affinity) came to 216 nM.
With CIKISGKWKAQKRPLC [BPI.57], the “pmol added to well … E. coli J5” value in test [1] was 514.03 pmol. The “pmol added to well … E. coli O111:B4” value in test [3] was “b (no detectable activity up to 5 μg/well)”. Moreover, the “pmol added to well … S. aureus” value in test [4] was “b (no detectable activity up to 5 μg/well)”.
Consider “Cecropin A (KWKLFKKIEKVGQNIRDGIIKAGPAVAVVGQATQIAK; ends and bridges not checked; UniProt P01507 27-63, looked up) [antibacterial peptide of lepidopteran insects (Sigma), reference compound]”, for which, in test [2], the heparin binding capacity turned out to be 242 ng heparin/2 μg peptide and the “Heparin Capacity” value was determined as 242.0 ng. Besides, in test [2] (read-out: Heparin Affinity), the Kd came to 395 nM. Further, the Kd in test [2] (setting [5]) turned out to be 395 nM.
Consider GTAALQKELKRIKIP [BPI.54], for which, in test [1], the “bactericidal activity (in words)” value is recorded as “little or no bactericidal activity” and the “pmol added to well … E. coli J5” value is reported as “b (no detectable activity up to 5 μg/well)”. Moreover, in test [2], the “heparin binding capacity (in words)” value is given as “low heparin binding capacity” and the “Heparin Capacity” value amounted to 64.3 ng. The Kd in test [2] (read-out: Heparin Affinity) came out at 237 nM. Moreover, the “pmol added to well … E. coli O111:B4” value in test [3] is given as “b (no detectable activity up to 5 μg/well)”.
As to “IKISGKAβ-(1-naphthyl)KAAβ-(1-naphthyl)Aβ-(1-naphthyl)RFLK (IKISGK[1Nal]KA[1Nal][1Nal]RFLK) [BPI.122]”, the “pmol added to well … E. coli J5” value in test [1] is 179.89 pmol. Besides, in test [3], the “pmol added to well … E. coli O111:B4” value was 2,123.57 pmol. The “pmol added to well … S. aureus” value in test [4] is recorded as 2,631,667.24 pmol.
Take “IKISGKAβ-(1-naphthyl)KAQAβ-(1-naphthyl)RFLK (IKISGK[1Nal]KAQ[1Nal]RFLK) [BPI.112]”: the “pmol added to well … E. coli J5” value in test [1] is reported as 1,485.92 pmol. Besides, the “pmol added to well … E. coli O111:B4” value in test [3] is on record as “b (no detectable activity up to 5 μg/well)”. The “pmol added to well … S. aureus” value in test [4] was “b (no detectable activity up to 5 μg/well)”.
Turning to IKISGKWKAAARFLK [BPI.45], the “pmol added to well … E. coli J5” value in test [1] is reported as 1,301.80 pmol. Also, the “Heparin Capacity” value in test [2] is 160.7 ng. Further, in test [2] (read-out: Heparin Affinity), the Kd turned out to be 153 nM. The “pmol added to well … E. coli O111:B4” value in test [3] is given as 4,849.00 pmol.
“IKISGKWKAAβ-(1-naphthyl)Aβ-(1-naphthyl)RFLK (IKISGKWKA[1Nal][1Nal]RFLK) [BPI.121]”: in test [1], the “pmol added to well … E. coli J5” value is 154.35 pmol. The “pmol added to well … E. coli O111:B4” value in test [3] is 1,856.40 pmol. Also, in test [4], the “pmol added to well … S. aureus” value is 941,388.07 pmol.
Turning to IKISGKWKAQERFLK [BPI.136], the “pmol added to well … E. coli J5” value in test [1] was 18,846.44 pmol. The “pmol added to well … E. coli O111:B4” value in test [3] was “b (no detectable activity up to 5 μg/well)”. In addition, in test [4], the “pmol added to well … S. aureus” value is “b (no detectable activity up to 5 μg/well)”.
IKISGKWKAQKRWLK [BPI.141]: the “pmol added to well … E. coli J5” value in test [1] is recorded as 2,809.51 pmol. Also, in test [3], the “pmol added to well … E. coli O111:B4” value is “b (no detectable activity up to 5 μg/well)”. Besides, the “pmol added to well … S. aureus” value in test [4] is given as “b (no detectable activity up to 5 μg/well)”.
As to “IKISGKWKAWKRAβ-(1-naphthyl)LKK (IKISGKWKAWKR[1Nal]LKK) [BPI.105]”, the “pmol added to well … E. coli J5” value in test [1] is 65.35 pmol. Moreover, the “pmol added to well … E. coli O111:B4” value in test [3] is given as 206.98 pmol. Besides, in test [4], the “pmol added to well … S. aureus” value was 6,260.97 pmol.
Take KSKVWLIQLFHKK [BPI.11]: the “pmol added to well … E. coli J5” value in test [1] turned out to be 638.30 pmol. The “Heparin Capacity” value in test [2] worked out at 290.5 ng. Further, the Kd in test [2] (read-out: Heparin Affinity) was 744 nM. The “pmol added to well … E. coli O111:B4” value in test [3] was “b (no detectable activity up to 5 μg/well)”.
Consider “Limulus anti-LPS factor [LALF, reference compound]”, for which, in test [2], the heparin binding capacity is recorded as 195.3 ng heparin/2 μg peptide and the “Heparin Capacity” value was determined as 195.3 ng. The Kd in test [2] (read-out: Heparin Affinity) came to 1290 nM. For the same substance, the Kd in test [2] (setting [5]) worked out at 1290 nM.
Consider “Polymyxin B peptide [PMB Peptide, reference compound]”, for which, in test [2], the heparin binding capacity came out at 58.0 ng heparin/2 μg peptide and the “Heparin Capacity” value came out at 58.01 ng. The Kd in test [2] (read-out: Heparin Affinity) was 309 nM.
For SVHVHISKSKVGWLIQLFHKKIESALRNK [BPI.12], the “pmol added to well … E. coli J5” value in test [1] amounted to 524.80 pmol. Further, the “Heparin Capacity” value in test [2] is given as 231.5 ng. Besides, in test [2] (read-out: Heparin Affinity), the Kd turned out to be 285 nM. Also, in test [3], the “pmol added to well … E. coli O111:B4” value was “b (no detectable activity up to 5 μg/well)”.
Substance magainin II amide [reference compound] displayed a heparin binding capacity in test [2] of 437.7 ng heparin/2 μg peptide. The “Heparin Capacity” value in test [2] was 453.7 ng. The Kd in test [2] (read-out: Heparin Affinity) and in test [2] (setting [5]) was 3170 nM throughout.
